Measurements as given in patent publication EP0782854A2, “Use of isopropyl-2-(1,3-dithietan-2-ylidene)-2-(N-(4-methylthiazol-2-yl)carbamoyl)acetate as a cancer chemopreventive agent” (Yuhan Corporation, priority 1995, dated 1997).

What was measured:
[1] = test system: Salmonella typhimurium TA100; assay: Ames His+ reversion assay, mutagenesis induced by B[a]P (liquid preincubation, S9); format: cell-based; details: 2.5µg B[a]P, control (0 µg) 248±26.0
Experimental: (§1) Male Sprague-Dawley rats (40 to 45 day old) were fed with a standard laboratory pellet diet and water ad libitum under standard conditions(12h light-12h dark cycle, temp.: 21±2°C). They were treated intraperitoneally with Aroclor 1254 (500mg/kg in corn oil) for 5 consecutive days prior to sacrifice. Rats were killed by CO2 asphyxiation, and their livers were immediately removed and perfused in situ with ice-cooled isotonic KCl solution. The liver tissue was weighed, minced, and homogenized in 3-fold volumes of ice-cooled 0.25M sucrose solution by employing a motorized Potter-Elvehjem glass-Teflon homogenizer. The homogenates were centrifuged at 9,000 X g for 30 minutes and the supernatant(S9 fraction) was used as the source of enzymes.
(§2) The Ames His+ reversion assay was performed in accordance with the liquid preincubation method using Salmonella typhimurium TA98 and TA100 as test strains[see D.M. Maton and B. N. Ames, Mutation Res., 113, pp. 173-221(1983)].
(§3) Each of TA98 and TA100(1 to 2 x 10^9/plate) and 2.5µg of B[a]P dissolved in DMSO were added to the Aroclor 1254-induced rat hepatic postmitochondrial supernatant containing NADPH-generating system obtained above([…] containing about 2mg protein). Various amounts of isopropyl 2-(1,3-dithietan-2-ylidene)-2-[N-(4-methylthiazol-2-yl)carbamoyl]acetate were added thereto, and preincubated at 37°C for 20 minutes.
(§4) The mixture was then diluted with soft agar, poured onto hard agar plates, and incubated for another 48 hours to allow the development of His+ revertant colonies. The data were corrected for the numbers of spontaneous revertant.

[2] = test system: Salmonella typhimurium TA98; assay: as above; format: cell-based; details: 2.5µg B[a]P, control (0 µg) 116±3.6
Experimental: as §1, §2, §3, §4

[3] = test system: Salmonella typhimurium TA100; assay: Ames His+ reversion assay, mutagenesis induced by BPDE; format: cell-based; details: 25nmol BPDE; for No. of His+ revertant/plate: control (0 µg) 706
Experimental: (§5) The Ames His+ reversion assay was performed in accordance with the liquid preincubation method using Salmonella typhimurium TA100 as a test strain[see D.M. Maton and B. N. Ames, Mutation Res., 113, pp. 173-221(1983)].
(§6) 25nmol of BPDE was incubated with S. typhimurium TA100 in the absence or presence of a given amount of isopropyl 2-(1,3-dithietan-2-ylidene)-2-[N-(4-methylthiazol-2-yl)carbamoyl]acetate at 37 °C for 20 minutes.
(§7) Then, the mixture was diluted with soft agar, poured onto hard agar plates, and incubated for another 48 hours to allow the development of His+ revertant colonies. The data are expressed as average of values from duplicate analysis.

[4] = test system: Salmonella typhimurium TA100 and TA1535; assay: Ames His+ reversion assay, mutagenesis induced by VC (Figure 1); format: cell-based; details: vinyl carbamate 10µmol; compound 2.5µg and 25µg; values only in Figure 1
Experimental: as §1, §2
[…] Various amounts of isopropyl 2-(1,3-dithietan-2-ylidene)-2-[N-(4-methylthiazol-2-yl)carbamoyl]acetate were added thereto, and preincubated at 37°C for 20 minutes.
The mixture was then diluted with soft agar, poured onto hard agar plates, and incubated for another 48 hours to allow the development of His+ revertant colonies. The data were corrected for the numbers of spontaneous revertant. […]

[5] = test system: Salmonella typhimurium TA100; assay: Ames His+ reversion assay, mutagenesis induced by VC epoxide; format: cell-based
Experimental: as §5, §6, §7
The procedure of Test Example 1-2 was repeated except that Salmonella typhimurium TA100 was used as a test strain and vinyl carbamate epoxide(25 and 50nmol) was used as mutagens.

[6] = test system: calf thymus DNA; assay: Covalent binding test of [3H]-B[a]P to DNA; format: biochemical; details: 37°C, 30 minutes, control (0 µM) 60±7.1
Experimental: 2ml of the mixture of 50mM potassium phosphate buffer (pH 7.4) containing 0.25µg of [^3H]-B[a]P(specific activity: 12.35mCi/mmol), 2mg of calf thymus DNA, 25mg of EDTA, NADPH(0.65mM), and 4 mg of hepatic postmitochondrial supernatant was incubated with isopropyl 2-(1,3-dithietan-2-ylidene)-2-[N-(4-methylthiazol-2yl)carbamoyl]acetate of various concentrations at 37°C for 30 minutes.
DNA was isolated by ethanol precipitation after the removal of proteins. DNA pellets thus obtained were successively rinsed with 75% ethanol containing 1% NaCl, 75% ethanol, absolute ethanol, acetone and ethyl ether, and then dried.
Dried DNA samples were dissolved in 15 mM NaCl-1.5mM sodium citrate buffer(pH 7.0). The DNA concentration was determined by diphenylamine method using calf thymus DNA as a standard[see K. Burton and G.B. Peterson, Biochem. J., 75, pp.17-27, 1960].
Aliqouts of DNA solutions were dissolved in Solvable(Du Pont/NEN Research Products, Boston, MA). After neutralization with glacial acetic acid, the levels of radio-labeled hydrocarbons covalently bound to DNA were determined by employing a liquid scintillation counter with the addition of Liquescent(National Diagnostics, Manville, NJ) as a cocktail.

[7] = test system: mouse skin tumor; assay: Mouse skin tumor test, carcinogenesis induced by VC (topical initiation, TPA promotion); format: in vivo, female ICR mice; details: VC 5.8 µmol topical, pretreatment 2.5µmol compound or 8µmol diallyl sulfide
Experimental: (§8) Inhibitory effect of isopropyl 2-(1,3-dithietan-2-ylidene)-2-[N-(4-methylthiazol-2-yl)carbamoyl]acetate on mouse skin tumor was also investigated.
The dorsal region of female ICR mice (6- to 7-week old) was shaved. Groups of 30 mice were administered with 2.5µmol isopropyl 2-(1,3-dithietan-2-ylidene)-2-[N-(4-methylthiazol-2-yl)carbamoyl]acetate in 0.2% sodium carboxymethyl cellulose or 8µmol of diallyl sulfide in 0.1M sterilized potassium phosphate buffer. After 10 minutes, the mice were administered topically with VC(5.8 µmol) in 0.2ml acetone containing 15% DMSO. Control group was administered with VC alone.
One week after the initiation, the mice were administered topically with 15nmol TPA(12-O-tetradecanoyl phorbol-13-acetate)in 0.1 ml acetone twice a week to promote carcinogenic process.
Tumors of at least 1 mm in diameter were counted and recorded every other week. The results are shown in Table V. Numbers in parentheses indicate the % of tumor bearing mice.

[8] = test system: mouse skin tumor; assay: Mouse skin tumor test, carcinogenesis induced by B[a]P or VC (gavage pretreatment, TPA promotion); format: in vivo, female CD-1 mice; details: 16 weeks, diallyl sulfide 0.2mg/10µl/g body wt.
Experimental: as §8
trioctanoin, or isopropyl 2-(1,3-dithietan-2-ylidene)-2-[N-(4-methylthiazol-2-yl)carbamoyl]acetate(0.15mg/10µl/g body wt.) or diallyl sulfide(0.2mg/10µl/g body wt.) suspended in trioctanoin were administered to female CD-1 mice(6 weeks old) by gastric gavage method 24 hours and 1 hour prior to the intraperitoneal injection of B[a]P(0.3µmol) or VC(11.5µmol) in 0.2ml acetone or the same volume of acetone alone.
One week after the initiation, animals were administered topically with 15nmol TPA(12-O-tetradecanoyl phorbol-13-acetate) in 0.1ml acetone twice a week to promote carcinogenesis.
Tumors of at least 1 mm in diameter were counted and recorded at 16 weeks after initiation.

[9] = initiator B[a]P 0.3µmol, gavage pretreatment compound 0.15mg/10µl/g, trioctanoin control 6.7±5.1
[10] = initiator B[a]P 0.3µmol, gavage pretreatment compound 0.15mg/10µl/g, trioctanoin control 92
[11] = initiator VC 11.5µmol, gavage pretreatment compound 0.15mg/10µl/g, trioctanoin control 1.0±1.6
[12] = initiator VC 11.5µmol, gavage pretreatment compound 0.15mg/10µl/g, trioctanoin control 58
[13] = initiator acetone alone, gavage 24 hours and 1 hour before, compound 0.15mg/10µl/g

Question: What does the source list for `Cc1csc(NC(=O)C(C(=O)OC(C)C)=C2SCS2)n1` [Compound, Isopropyl 2-(1,3-dithietan-2-ylidene)-2-[N-(4-methylthiazol-2-yl)carbamoyl]acetate]?
Answer: No. of His+ revertant/plate ([1]; compound 1 µg): 205±23.1; No. of His+ revertant/plate ([1]; compound 5 µg): 140±4.6; No. of His+ revertant/plate ([1]; compound 25 µg): 93±8.7; No. of His+ revertant/plate ([2]; compound 1 µg): 84±16.1; No. of His+ revertant/plate ([2]; compound 5 µg): 48±3.2; No. of His+ revertant/plate ([2]; compound 25 µg): 23±2.5; % inhibition ([3]; compound 2.5 µg): 58%; No. of His+ revertant/plate ([3]; compound 2.5 µg): 301; % inhibition ([3]; compound 10 µg): 69%; No. of His+ revertant/plate ([3]; compound 10 µg): 217; % inhibition ([3]; compound 25 µg): 74%; No. of His+ revertant/plate ([3]; compound 25 µg): 180; effect on mutagenesis induced by VC [4]: dose-dependently inhibit; No. of His+ revertant/plate ([5]; VC epoxide 25 nmol, compound 2.5 µg, control (0 µg) 283): 247; No. of His+ revertant/plate ([5]; VC epoxide 25 nmol, compound 10 µg, control (0 µg) 283): 239; No. of His+ revertant/plate ([5]; VC epoxide 25 nmol, compound 25 µg, control (0 µg) 283): 201; No. of His+ revertant/plate ([5]; VC epoxide 50 nmol, compound 2.5 µg, control (0 µg) 598): 541; No. of His+ revertant/plate ([5]; VC epoxide 50 nmol, compound 10 µg, control (0 µg) 598): 509; No. of His+ revertant/plate ([5]; VC epoxide 50 nmol, compound 25 µg, control (0 µg) 598): 471; Covalent DNA binding ([6]; compound 5 µM): 22 ± 2.0 pmol; Covalent DNA binding ([6]; compound 50 µM): 16 ± 3.2 pmol; Average No. of papillomas/mouse ([7]; week 14, VC alone 0.9±1.1): 0.2±0.5; % of tumor bearing mice ([7]; week 14, VC alone 53): 20%; Average No. of papillomas/mouse ([7]; week 16, VC alone 1.4±1.7): 0.4±0.7; % of tumor bearing mice ([7]; week 16, VC alone 63): 30%; Average No. of papillomas/mouse ([7]; week 18, VC alone 1.8±1.9): 0.6±0.9; % of tumor bearing mice ([7]; week 18, VC alone 67): 40%; Average No. of papillomas/mouse ([7]; week 20, VC alone 2.4±2.1): 0.8±1.0; % of tumor bearing mice ([7]; week 20, VC alone 70): 50%; Ave. No. of tumor/mouse [8, 9]: 2.8±3.4; % mice with papillomas [8, 10]: 72%; Ave. No. of tumor/mouse [8, 11]: 0.5±0.8; % mice with papillomas [8, 12]: 36%; % mice with papillomas [8, 13]: 0%; Ave. No. of tumor/mouse [8, 13]: 0

Question: How did the “Average No. of papillomas/mouse” value ([7]; week 14, VC alone 0.9±1.1) turn out when `C=CCSCC=C` [Diallyl sulfide, reference compound] was run?
Answer: 0.2±0.5

Question: And the “% of tumor bearing mice” value ([7]; week 14, VC alone 53)?
Answer: 17%

Question: And the “Average No. of papillomas/mouse” value ([7]; week 16, VC alone 1.4±1.7)?
Answer: 0.5±0.9

Question: What about the “% of tumor bearing mice” value ([7]; week 16, VC alone 63) of the same molecule?
Answer: 30%

Question: What about the “Average No. of papillomas/mouse” value ([7]; week 18, VC alone 1.8±1.9) of the same molecule?
Answer: 0.7±1.1

Question: What about the “% of tumor bearing mice” value ([7]; week 18, VC alone 67) of the same molecule?
Answer: 37%

Question: What about the “Average No. of papillomas/mouse” value ([7]; week 20, VC alone 2.4±2.1) of the same molecule?
Answer: 0.9±1.1

Question: What about the “% of tumor bearing mice” value ([7]; week 20, VC alone 70) of the same molecule?
Answer: 50%

Question: What about the “Ave. No. of tumor/mouse” value [8, 9] of the same molecule?
Answer: 4.0±5.6

Question: What about the “% mice with papillomas” value [8, 10] of the same molecule?
Answer: 64%

Question: What about the “Ave. No. of tumor/mouse” value [8, 11] of the same molecule?
Answer: 0.4±0.9

Question: And the “% mice with papillomas” value [8, 12]?
Answer: 28%

Question: What about the “% mice with papillomas” value [8, 13] of the same molecule?
Answer: 0%

Question: What about the “Ave. No. of tumor/mouse” value [8, 13] of the same molecule?
Answer: 0
